Measurements taken from ChEMBL document CHEMBL4665668, “Design and development of molecular hybrids of 2-pyridylpiperazine and 5-phenyl-1,3,4-oxadiazoles as potential multifunctional agents to treat Alzheimer's disease” (Eur J Med Chem, 2019).
Calls of active or inactive are those of the source. The rule behind the calls is not given here.

Columns and labels:
Beta-secretase 1 = Beta-secretase 1 (Homo sapiens, UniProt P56817); experiment: Inhibition of human BACE-1 using MOCA-SEV-NL-DAEFR-DNP-RR as substrate preincubated with substrate followed by enzyme addition by FRET assay
Chain of Beta-secretase 1 (P56817 whole entry): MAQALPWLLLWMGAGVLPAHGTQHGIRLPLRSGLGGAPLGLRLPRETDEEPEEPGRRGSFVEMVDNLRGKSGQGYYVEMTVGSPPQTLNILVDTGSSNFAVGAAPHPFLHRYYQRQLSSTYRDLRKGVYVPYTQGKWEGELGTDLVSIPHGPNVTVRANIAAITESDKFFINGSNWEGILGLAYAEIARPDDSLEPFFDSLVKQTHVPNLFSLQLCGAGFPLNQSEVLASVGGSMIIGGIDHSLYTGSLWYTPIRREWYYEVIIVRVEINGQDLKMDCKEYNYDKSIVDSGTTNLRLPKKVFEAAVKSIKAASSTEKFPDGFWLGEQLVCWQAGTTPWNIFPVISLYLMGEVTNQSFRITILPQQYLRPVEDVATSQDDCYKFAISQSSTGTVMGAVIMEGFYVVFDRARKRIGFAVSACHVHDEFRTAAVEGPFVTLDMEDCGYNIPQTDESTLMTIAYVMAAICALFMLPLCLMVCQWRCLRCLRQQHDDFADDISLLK

Cholinesterase = Cholinesterase (Homo sapiens, UniProt P06276); experiment: Inhibition of human serum BChE using butyrylthiocholine iodide as substrate preincubated for 10 mins followed by substrate addition by Ellman's method; format: cell-free
Chain of Cholinesterase (P06276 whole entry): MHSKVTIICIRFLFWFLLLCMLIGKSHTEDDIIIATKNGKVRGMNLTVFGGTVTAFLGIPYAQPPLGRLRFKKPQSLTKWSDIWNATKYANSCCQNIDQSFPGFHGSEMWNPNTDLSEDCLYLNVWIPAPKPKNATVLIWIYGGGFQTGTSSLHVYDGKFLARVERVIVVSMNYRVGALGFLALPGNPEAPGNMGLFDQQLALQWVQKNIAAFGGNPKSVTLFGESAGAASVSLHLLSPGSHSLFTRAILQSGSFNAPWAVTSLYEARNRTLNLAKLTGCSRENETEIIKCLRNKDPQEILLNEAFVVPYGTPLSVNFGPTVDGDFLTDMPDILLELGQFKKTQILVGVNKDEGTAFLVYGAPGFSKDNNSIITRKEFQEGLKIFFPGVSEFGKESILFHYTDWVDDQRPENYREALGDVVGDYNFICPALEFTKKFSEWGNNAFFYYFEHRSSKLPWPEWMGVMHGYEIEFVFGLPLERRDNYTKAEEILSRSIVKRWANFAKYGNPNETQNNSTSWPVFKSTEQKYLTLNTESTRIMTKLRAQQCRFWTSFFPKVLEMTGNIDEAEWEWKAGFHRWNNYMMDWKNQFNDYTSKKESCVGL

Acetylcholinesterase [1] = molecular target: T1, Acetylcholinesterase (Homo sapiens, UniProt P22303); experiment: Inhibition of human erythrocytes AChE using acetylthiocholine iodide as substrate preincubated for 10 mins followed by substrate addition by Ellman's method; format: tissue-based, Erythrocyte
T1 sequence (P22303 whole entry, the tested form may be a part): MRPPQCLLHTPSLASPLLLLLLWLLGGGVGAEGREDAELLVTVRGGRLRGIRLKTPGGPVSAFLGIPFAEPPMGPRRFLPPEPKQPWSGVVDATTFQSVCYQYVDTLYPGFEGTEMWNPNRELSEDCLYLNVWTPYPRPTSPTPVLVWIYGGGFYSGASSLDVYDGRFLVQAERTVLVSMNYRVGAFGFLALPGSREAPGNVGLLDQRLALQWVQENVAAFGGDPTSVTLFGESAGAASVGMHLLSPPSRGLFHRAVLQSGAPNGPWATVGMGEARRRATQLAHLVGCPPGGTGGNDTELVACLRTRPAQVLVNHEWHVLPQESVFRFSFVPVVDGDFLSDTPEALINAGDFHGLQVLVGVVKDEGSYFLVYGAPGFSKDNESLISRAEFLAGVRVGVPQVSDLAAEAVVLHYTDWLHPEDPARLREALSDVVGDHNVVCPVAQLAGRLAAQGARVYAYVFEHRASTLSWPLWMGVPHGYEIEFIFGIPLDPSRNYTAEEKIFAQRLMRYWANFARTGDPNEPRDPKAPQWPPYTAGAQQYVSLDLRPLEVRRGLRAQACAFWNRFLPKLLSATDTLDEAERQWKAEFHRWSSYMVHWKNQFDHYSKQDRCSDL

Rattus norvegicus [2] = experiment: (§1) Improvement in learning and spatial memory in icv infused amyloid beta (1 to 42)-induced rat model of Alzheimer's disease assessed as reduction in escape latency at 5 mg/kg, po administered daily for 7 days starting from 7 days post surgery and measured daily for 5 days by Morris water maze test; format: functional, organism-based; conditions: time 12.0 day
Rattus norvegicus [3] = experiment: as §1, with “increase” for “reduction”, “number of platform crossing” for “escape latency”, “after 6” for “daily for 5”; format: functional, organism-based; conditions: time 13.0 day
Rattus norvegicus [4] = species: Rattus norvegicus; conditions: Wistar, dose 5.0 mg/kg, time 7.0 day
[5] = molecular target: Amyloid-beta precursor protein (Homo sapiens) (UniProt P05067); conditions: dose microM 5-20, time 48.0 hrs
Chain of Amyloid-beta precursor protein (Homo sapiens) (P05067 whole entry): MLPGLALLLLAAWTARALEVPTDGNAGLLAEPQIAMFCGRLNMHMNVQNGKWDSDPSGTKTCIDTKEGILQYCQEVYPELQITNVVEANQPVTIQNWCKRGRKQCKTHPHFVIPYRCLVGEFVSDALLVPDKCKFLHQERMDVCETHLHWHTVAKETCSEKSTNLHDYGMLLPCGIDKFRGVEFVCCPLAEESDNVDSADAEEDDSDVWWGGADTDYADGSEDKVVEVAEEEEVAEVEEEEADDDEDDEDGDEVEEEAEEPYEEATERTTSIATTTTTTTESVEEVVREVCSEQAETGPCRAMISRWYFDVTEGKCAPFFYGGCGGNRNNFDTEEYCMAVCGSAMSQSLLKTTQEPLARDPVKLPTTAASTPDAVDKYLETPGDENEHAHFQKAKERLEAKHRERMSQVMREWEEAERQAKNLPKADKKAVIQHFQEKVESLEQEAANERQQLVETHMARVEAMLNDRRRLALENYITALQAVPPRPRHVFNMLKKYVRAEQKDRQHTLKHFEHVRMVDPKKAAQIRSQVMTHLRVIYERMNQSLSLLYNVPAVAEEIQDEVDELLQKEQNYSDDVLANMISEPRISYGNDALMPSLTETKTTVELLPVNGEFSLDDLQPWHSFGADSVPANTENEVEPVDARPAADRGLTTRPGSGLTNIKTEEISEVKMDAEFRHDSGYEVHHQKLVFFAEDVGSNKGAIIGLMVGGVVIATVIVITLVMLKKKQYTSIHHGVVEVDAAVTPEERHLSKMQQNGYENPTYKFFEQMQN

[6] = Permeability of the compound in PBS/EtOH buffer (7:3) at 25 ug/ml after 18 hrs by PAMPA-BBB assay
Rattus norvegicus [7] = experiment: Ex vivo inhibition of AChE in brain of scopolamine-induced Wistar rat model of amnesia at 5 to 10 mg/kg, po pretreated for 7 days followed by scopolamine challenge and measured after 30 mins using acetylthiocholine iodide as substrate by Ellman's method; format: functional, organism-based; conditions: dose mg/kg 5-10, time 7.0 day
Rattus norvegicus [8] = experiment: Antioxidant activity in scopolamine-induced Wistar rat model of amnesia assessed as decrease in MDA level at 2.5 to 10 mg/kg, po pretreated for 7 days followed by scopolamine challenge and measured after 30 mins […]; format: functional, organism-based; conditions: dose mg/kg 2.5-10, time 7.0 day
Rattus norvegicus [9] = experiment: Antioxidant activity in scopolamine-induced Wistar rat model of amnesia assessed as increase in SOD level at 2.5 to 10 mg/kg, po pretreated for 7 days followed by scopolamine challenge and measured after 30 mins […]; format: functional, organism-based; conditions: dose mg/kg 2.5-10, time 7.0 day
Acetylcholinesterase [10] = molecular target: T1, Acetylcholinesterase; experiment: Mixed type inhibition of human erythrocytes AChE using varying levels of acetylthiocholine iodide substrate by Dixon plot analysis; format: tissue-based, Erythrocyte
Acetylcholinesterase [11] = molecular target: T1, Acetylcholinesterase; experiment: Mixed type inhibition of human erythrocytes AChE assessed as decrease in Vmax using varying levels of acetylthiocholine iodide substrate by Lineweaver-Burk plot analysis; conditions: Erythrocyte
Acetylcholinesterase [12] = molecular target: T1, Acetylcholinesterase; experiment: Mixed type inhibition of human erythrocytes AChE assessed as increase in Km using varying levels of acetylthiocholine iodide substrate by Lineweaver-Burk plot analysis; format: tissue-based; conditions: Erythrocyte
[13] = molecular target: Amyloid-beta precursor protein (Homo sapiens) (UniProt P05067); experiment: Inhibition of amyloid beta (1 to […]) (unknown origin) self-induced aggregation after 48 hrs by Thioflavin T based fluorometric assay; conditions: dose microM 5-20, time 48.0 hrs
SH-SY5Y = experiment: Neuroprotective activity against amyloid beta (1 to 42)-induced oxidative stress in human SH-SY5Y cells assessed as effect on cell viability at 10 to 80 uM measured after 24 hrs by MTT assay (reference value: 61 %); format: functional; conditions: dose microM 10-80
[14] = Acute toxicity in Wistar rat assessed as abnormal signs at 100 to 500 mg/kg, po measured up to 14 days by OCED guideline method; format: organism-based; conditions: in vivo, 336 h, dose 100-500 mg/kg, time 14 day
[15] = Acute toxicity in po dosed Wistar rat assessed as maximum tolerated dose by OCED guideline method; format: organism-based; conditions: in vivo
Rattus norvegicus [16] = experiment: Cognitive enhancing effect in scopolamine-induced Wistar rat model of amnesia assessed as increase in spontaneous alteration at 5 to 10 mg/kg, po pretreated for 7 days followed by scopolamine challenge and measured after 30 mins by Y-maze test; format: functional, organism-based; conditions: dose mg/kg 5-10, time 7.0 day
Rattus norvegicus [17] = experiment: Cognitive enhancing effect in po dosed scopolamine-induced Wistar rat model of amnesia assessed as increase in spontaneous alteration pretreated for 7 days followed by scopolamine challenge and measured after 30 mins by Y-maze test; format: functional, organism-based; conditions: dose mg/kg 2.5-10, time 7.0 day
Rattus norvegicus [18] = experiment: (§2) Improvement in learning and spatial memory in icv infused amyloid beta (1 to 42)-induced rat model of Alzheimer's disease assessed as reduction in escape latency at 10 mg/kg, po administered daily for 7 days starting from 7 days post surgery and measured daily for 5 days by Morris water maze test; format: functional, organism-based; conditions: time 12.0 day
Rattus norvegicus [19] = experiment: as §2, with “increase” for “reduction”, “number of platform crossing” for “escape latency”, “after 6” for “daily for 5”; format: functional, organism-based; conditions: time 13.0 day
[20] = Cmax in Wistar rat at 10 mg/kg, po measured up to 72 hrs by HPLC analysis; format: ADME, organism-based; set-up: route oral, time 72 hrs, dose 10 mg/kg; conditions: in vivo
[21] = Tmax in Wistar rat at 10 mg/kg, po measured up to 72 hrs by HPLC analysis; format: ADME, organism-based; conditions: in vivo
[22] = AUC (0 to 24 hrs) in Wistar rat at 10 mg/kg, po measured up to 72 hrs by HPLC analysis; format: ADME, organism-based; set-up: route oral, dose 10 mg/kg, time 72 hrs; conditions: in vivo
[23] = Half life in Wistar rat at 10 mg/kg, po measured up to 72 hrs by HPLC analysis; format: ADME, organism-based; conditions: in vivo
[24] = MRT in Wistar rat at 10 mg/kg, po measured up to 72 hrs by HPLC analysis; format: ADME, organism-based; conditions: in vivo
[25] = molecular target: Amyloid-beta precursor protein (Homo sapiens) (UniProt P05067); experiment: Inhibition of amyloid beta (unknown origin) self aggregation assessed as maximum peak height at 10 uM after 10 days by atomic force microscopy; conditions: time 10.0 day
[26] = molecular target: Amyloid-beta precursor protein (Homo sapiens) (UniProt P05067); experiment: Inhibition of amyloid beta (unknown origin) self aggregation assessed as roughness index at 10 uM after 10 days by atomic force microscopy; conditions: time 10.0 day
Acetylcholinesterase [27] = molecular target: T1, Acetylcholinesterase; conditions: dose microM 5-20, time 48.0 hrs

Compound: Cc1cccc(-c2nnc(N3CCN(c4ccccn4)CC3)o2)c1
- IC50 (Beta-secretase 1): 2.64 µM
- IC50 (Cholinesterase): > 10 µM
- IC50 (Acetylcholinesterase [1]): 5.24 µM

Compound: O=C(N/N=C/c1ccc(Cl)cc1)N1CCN(c2ccccn2)CC1
- IC50 (Beta-secretase 1): 2.96 µM
- IC50 (Cholinesterase): 4.82 µM
- IC50 (Acetylcholinesterase [1]): 3.42 µM

Compound: Oc1ccccc1-c1nnc(N2CCN(c3ccccn3)CC2)o1
- IC50 (Beta-secretase 1): 2.23 µM
- IC50 (Cholinesterase): 8.22 µM
- IC50 (Acetylcholinesterase [1]): 1.23 µM

Compound: COc1cc2c(cc1OC)C(=O)C(CC1CCN(Cc3ccccc3)CC1)C2 (centres undefined)
- Activity (Rattus norvegicus [2]): Active
- Activity (Rattus norvegicus [3]): Active
- inhibition (Rattus norvegicus [4]): Active
- Flu intensity [5]: 0.31

Compound: Clc1ccc(-c2nnc(N3CCN(c4ccccn4)CC3)o2)cc1
- IC50 (Beta-secretase 1): 1.32 µM
- IC50 (Cholinesterase): 1.82 µM
- IC50 (Acetylcholinesterase [1]): 0.102 µM

Compound: O=C(N/N=C/c1ccc(F)cc1)N1CCN(c2ccccn2)CC1
- IC50 (Beta-secretase 1): 1.24 µM
- IC50 (Cholinesterase): 3.99 µM
- IC50 (Acetylcholinesterase [1]): 1.87 µM

Compound: COc1cccc(-c2nnc(N3CCN(c4ccccn4)CC3)o2)c1OC
- IC50 (Beta-secretase 1): 2.16 µM
- IC50 (Cholinesterase): 5.22 µM
- IC50 (Acetylcholinesterase [1]): 1.19 µM

Compound: O=C(N/N=C/c1ccccc1)N1CCN(c2ccccn2)CC1
- IC50 (Beta-secretase 1): 7.69 µM
- IC50 (Cholinesterase): 4.22 µM
- IC50 (Acetylcholinesterase [1]): 3.62 µM

Compound: O=C(N/N=C/c1ccc(F)cc1F)N1CCN(c2ccccn2)CC1
- IC50 (Beta-secretase 1): 0.446 µM
- IC50 (Cholinesterase): 3.97 µM
- IC50 (Acetylcholinesterase [1]): 0.682 µM
- Papp at 18 h, 25 ug/ml [6]: 4.1 ×10⁻⁶ cm/s

Compound: Cc1ccc(-c2nnc(N3CCN(c4ccccn4)CC3)o2)cc1
- IC50 (Beta-secretase 1): 2.48 µM
- IC50 (Cholinesterase): > 10 µM
- IC50 (Acetylcholinesterase [1]): 1.02 µM

Compound: Cc1ccc(/C=N/NC(=O)N2CCN(c3ccccn3)CC2)cc1
- IC50 (Beta-secretase 1): 3.92 µM
- IC50 (Cholinesterase): > 10 µM
- IC50 (Acetylcholinesterase [1]): 4.78 µM

Compound: O=C(N/N=C/c1ccc(O)cc1)N1CCN(c2ccccn2)CC1
- IC50 (Beta-secretase 1): 4.68 µM
- IC50 (Cholinesterase): 6.15 µM
- IC50 (Acetylcholinesterase [1]): 4.81 µM

Compound: Cc1cccc(/C=N/NC(=O)N2CCN(c3ccccn3)CC2)c1
- IC50 (Beta-secretase 1): 4.37 µM
- IC50 (Cholinesterase): > 10 µM
- IC50 (Acetylcholinesterase [1]): > 10 µM

Compound: Fc1ccc(-c2nnc(N3CCN(c4ccccn4)CC3)o2)c(F)c1
- inhibition (Rattus norvegicus [7]): Active
- Activity (Rattus norvegicus [8]): Active
- Activity (Rattus norvegicus [9]): Active
- IC50 (Cholinesterase): 0.787 µM
- Ki (Acetylcholinesterase [10]): 0.03 µM
- inhibition (Acetylcholinesterase [11]): Active
- inhibition (Acetylcholinesterase [12]): Active
- Papp at 18 h, 25 ug/ml [6]: 6.1 ×10⁻⁶ cm/s
- inhibition [13]: Active
- Activity (SH-SY5Y): 69%
- Activity [14]: Non-Toxic
- MTD [15]: 100 mg/kg
- Activity (Rattus norvegicus [16]): Active
- Activity (Rattus norvegicus [17]): Dose-dependent effect
- Activity (Rattus norvegicus [18]): Active
- Activity (Rattus norvegicus [19]): Active
- Cmax [20]: 49.8 ng/mL
- Tmax [21]: 5.33 h
- AUC(0-t) at 72 h [22]: 721 ng·h/mL
- half-life [23]: 12.3 h
- MRT [24]: 18.4 h
- Activity [25]: 44.2 nm
- Activity [26]: 1.84 nm
- Flu intensity [5]: 0.3
- Flu intensity (Acetylcholinesterase [27]): 0.33

Compound: Oc1ccc(-c2nnc(N3CCN(c4ccccn4)CC3)o2)c(O)c1
- IC50 (Beta-secretase 1): 0.382 µM
- IC50 (Cholinesterase): 3.29 µM
- IC50 (Acetylcholinesterase [1]): 1.34 µM
